Reference: patent publication US20250320227A1, “MACROCYCLIC OREXIN RECEPTOR AGONISTS AND USES THEREOF” (Jazz Pharmaceuticals Ireland Limited, priority 2022, published 2025)

molecular target: T1, human recombinant OX2 (hOX2) receptors expressed in CHO cells (Homo sapiens, UniProt O43614); test: IP-1 accumulation assay (IP-One HTRF) in hOX2-CHO cells; format: cell-based; conditions: 60 min incubation at 37° C., mean of at least two independent experiments, read-out: EC50_OX2R Category
T1 construct: host or cells: CHO cells (hOX2-CHO)
T1 sequence (O43614 1-444): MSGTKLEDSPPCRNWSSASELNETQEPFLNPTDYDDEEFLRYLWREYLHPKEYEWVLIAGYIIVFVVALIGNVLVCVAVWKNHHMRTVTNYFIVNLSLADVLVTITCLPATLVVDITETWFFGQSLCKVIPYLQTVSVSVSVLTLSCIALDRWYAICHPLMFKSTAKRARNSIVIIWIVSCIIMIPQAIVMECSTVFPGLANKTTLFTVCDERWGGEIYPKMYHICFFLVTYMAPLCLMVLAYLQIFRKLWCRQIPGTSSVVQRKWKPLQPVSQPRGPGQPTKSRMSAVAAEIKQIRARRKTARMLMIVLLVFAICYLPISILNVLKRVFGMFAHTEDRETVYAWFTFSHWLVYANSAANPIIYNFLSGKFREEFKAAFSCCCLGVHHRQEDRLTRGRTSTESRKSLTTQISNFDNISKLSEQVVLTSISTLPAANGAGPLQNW
Description: The accumulation of Inositol-1 Monophosphate (IP-1) was measured using IP-One HTRF® Terbium cryptate based assay (Cisbio) in human recombinant OX1 (hOX1) and at OX2 (hOX2) receptors expressed in CHO cells (DiscoverX) according to the manufacturer's instructions for cells tested in suspension.
hOX1-CHO and hOX2-CHO cells were seeded into white 384-well plates at a density of 20,000 cells/well in Hank's Balanced Salt Solution (HBSS) containing 20 mM HEPES pH 7.4, 50 mM, LiCl and 0.1% and Bovine Serum Albumin (BSA).
Compounds of disclosure were tested in an 11 points concentration response curve (CRC) serially diluted in neat DMSO at 200 fold concentrations and added by Echo acoustic liquid handling (Labcyte) to the cells (0.5% DMSO final in the assay). After 60 min of incubation at 37° C. detection reagents, IP1-d2 tracer and anti-IP1-cryptate were diluted in lysis buffer according to the manufacturer's descriptions and added to the cells.
Following 60 min incubation at room temperature, time-resolved fluorescence (HTRF) was measured at 615 nm and 665 nm by Envision Multilabel reader (Perkin Elmer) and the HTRF ratio (A665/A615×10^4) was calculated.
The IP-1 accumulation response was expressed as percentage of the maximal OX-A response.
Curve fitting and EC50 estimations were carried out using a four-parameter logistic model using XLfit Software. Mean data of EC50 are calculated from at least two independent experiments performed in duplicates

Structure (SMILES) | EC50
O=C1COCC2(CCCN3C(=O)OCCOc4ccccc4-c4cccc(c4F)CC32)N1 (racemic) [Example 65, Rel-(3S, 18′S)-24′-fluoro-8′,11′-dioxa-13′-azaspiro[morpholine-3,17′-tetracyclo[18.3.1.0^2,70.0^13,18]tetracosane]-1′(24′),2′(7′),3′,5′,20′,22′-hexaene-5,12′-dione] | > 10000 nM
O=C1CCC2(CCCN3C(=O)COc4ccccc4[C@H]4CC[C@H](CC4)OCC32)N1 (mixture of isomers) [Example 69, Rel-(1′s,2R,16′R,19′s)-8′,18′-dioxa-11′-azaspiro[pyrrolidine-2,15′-tetracyclo-[17.2.2.0^2,70.0^11,16]tricosane]-2′(7′),3′,5′-triene-5,10′-dione] | 100 to 1000 nM
O=C1COc2ccccc2[C@H]2CC[C@H](CC2)OCC2N1CCCC21COC(C(F)(F)F)N1 (mixture of isomers) [Example 70, Rel-(1′s,3S,16′R,19′s)-5-(trifluoromethyl)-8′,18′-dioxa-11′-azaspiro[1,4-oxazolidine-3,15′-tetracyclo[17.2.2.0^2,70.0^11,16]tricosane]-2′(7′),3′,5′-trien-10′-one] | 100 to 1000 nM
O=C1COCC2(CCCN3C(=O)C4(CC4)COc4cccc(F)c4[C@H]4CC[C@H](CC4)OCC32)N1 (mixture of isomers) [Example 72, (1′s,20′s)-3′-fluorodispiro [cyclopropane-1,10′-[8,19]dioxa-[12]azatetracyclo [18.2.2.0^2,^7.0^12,^17]tetracosane-16′,3″- morpholine]-2′,4′,6′-triene-5″,11′-dione] | < 100 nM
O=C1COCC2(CCCN3C(=O)CCCCOc4cccc(n4)[C@H]4CC[C@H](CC4)OCC32)N1 (mixture of isomers) [Example 76, (1′s,21′s)-7′,20′-dioxa-13′,26′-diazaspiro[morpholine-3,17′-tetracyclo[19.2.2.1^2,60.0^13,18]hexacosane]-2′,4′,6′(26′)-triene-5,12′-dione] | < 100 nM
CC1CC(=O)N2CCC3(COCC(=O)N3)C2CO[C@H]2CC[C@H](CC2)c2ccccc2O1 (relative stereo) [Example 4, rel-(1′s,3S,16′R,19′s)-9′-methyl-8′,18′-dioxa-12′-azaspiro[morpholine-3,15′-tetracyclo[17.2.2.0^2,70.0^12,16]tricosane]-2′(7′),3′,5′-triene-5,11′-dione] | 100 to 1000 nM
O=C1COCC2(CCN3C(=O)CC(C(F)(F)F)Oc4ccccc4[C@H]4CC[C@H](CC4)OCC32)N1 (relative stereo) [Example 6, rel-(1′s,3S,16′R,19′s)-9′-(trifluoromethyl)-8′,18′-dioxa-12′-azaspiro[morpholine-3,15′-tetracyclo[17.2.2.0^2,70.0^12,16]tricosane]-2′(7′),3′,5′-triene-5,11′-dione] | 1000 to 10000 nM
O=C1NC2(CCN3C(=O)CCOc4ccccc4[C@H]4CC[C@H](CC4)OCC32)COC1F (relative stereo) [Example 8, rel-(1′s,3S,16′R,19′s)-6-fluoro-8′,18′-dioxa-12′-azaspiro[morpholine-3,15′-tetracyclo[17.2.2.0^2,70.0^12,16]tricosane]-2′(7′),3′,5′-triene-5,11′-dione] | < 100 nM
C[C@@H]1CC2(COCC(=O)N2)C2CO[C@H]3CC[C@H](CC3)c3ccccc3OCCC(=O)N21 (relative stereo) [Example 13, rel-(1′s,3S, 13′R,16′R,19′s)-13′-methyl-8′,18′-dioxa-12′-azaspiro[morpholine-3,15′-tetracyclo[17.2.2.0^2,70.0^12,16]tricosane]-2′(7′),3′,5′-triene-5,11′-dione] | < 100 nM
O=C1COc2ccccc2[C@H]2CC[C@H](CC2)OC[C@@H]2N1CCC[C@@]21CO[C@](F)(C(F)(F)F)C(=O)N1 (relative stereo) [Example 71a, rel-(1′s,3S,16′R,19′s)-6 (R)-fluoro-6-(trifluoromethyl)-8′,18′-dioxa-11′-azaspiro[morpholine-3,15′-tetracyclo[17.2.2.0^2,70.0^11,16]tricosane]-2′(7′),3′,5′-triene-5,10′-dione] | < 100 nM
